From ChEMBL document CHEMBL1201862, “PubChem BioAssay data set” (2004)
Activity calls are given as the source filed them.

Legend:
[1] = molecular target: T1, C-C chemokine receptor type 6 (Homo sapiens, UniProt P51684); test: CCR6 receptor antagonists, dose response, cell-based, luminescent beta-arrestin readout (AID 504728); type: functional
T1 sequence (P51684 whole entry): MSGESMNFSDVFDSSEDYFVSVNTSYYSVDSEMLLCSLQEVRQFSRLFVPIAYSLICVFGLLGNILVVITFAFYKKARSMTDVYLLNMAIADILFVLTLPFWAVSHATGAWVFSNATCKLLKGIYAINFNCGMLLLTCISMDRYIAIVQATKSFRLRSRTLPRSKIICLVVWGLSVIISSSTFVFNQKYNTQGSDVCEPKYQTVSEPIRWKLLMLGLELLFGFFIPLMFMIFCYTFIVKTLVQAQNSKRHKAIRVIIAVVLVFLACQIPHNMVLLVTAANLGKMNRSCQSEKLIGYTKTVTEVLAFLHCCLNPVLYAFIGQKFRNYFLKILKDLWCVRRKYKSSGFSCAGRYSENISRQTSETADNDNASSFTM

Beta-galactosidase = Beta-galactosidase (Escherichia coli, UniProt Q8VNN2); test: beta-galactosidase enzyme inhibitors and activators, dose response, artefact control for CCR6 antagonist project, biochemical, E. coli enzyme, set 3 (AID 504712); type: functional
[2] = molecular target: T2, DNA dC->dU-editing enzyme APOBEC-3G (Homo sapiens, UniProt Q9HC16); test: Dose Response confirmation of small molecule APOBEC3G DNA Deaminase Inhibitors via a fluorescence-based single-stranded DNA deaminase assay. [Related pubchem assays (depositor defined):AID493012, AID493028]; type: functional
T2 sequence (Q9HC16 whole entry): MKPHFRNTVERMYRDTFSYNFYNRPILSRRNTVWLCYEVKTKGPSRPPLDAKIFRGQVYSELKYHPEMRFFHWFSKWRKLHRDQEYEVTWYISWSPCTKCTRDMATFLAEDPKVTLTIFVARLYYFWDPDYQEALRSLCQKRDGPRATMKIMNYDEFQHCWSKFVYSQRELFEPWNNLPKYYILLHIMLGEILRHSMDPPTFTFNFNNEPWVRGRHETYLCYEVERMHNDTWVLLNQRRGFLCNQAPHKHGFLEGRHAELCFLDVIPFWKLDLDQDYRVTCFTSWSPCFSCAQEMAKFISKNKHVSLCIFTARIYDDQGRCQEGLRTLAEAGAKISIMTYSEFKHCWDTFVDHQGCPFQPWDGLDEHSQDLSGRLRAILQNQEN

[3] = molecular target: Peroxisome proliferator-activated receptor gamma/Nuclear receptor coactivator 3 (Homo sapiens, UniProt P37231); test: (§1) TR-FRET dose response biochemical High Throughput Screening assay for agonists of the steroid receptor coactivator 3 (SRC-3) recruitment by the peroxisome proliferator-activated receptor gamma (PPAR gamma): non-selective agonists. [Related pubchem assays: 1301 (Confirmation screen.), 1048 (Primary screen.)]; type: functional
Sequence of Peroxisome proliferator-activated receptor gamma/Nuclear receptor coactivator 3 (P37231 whole entry): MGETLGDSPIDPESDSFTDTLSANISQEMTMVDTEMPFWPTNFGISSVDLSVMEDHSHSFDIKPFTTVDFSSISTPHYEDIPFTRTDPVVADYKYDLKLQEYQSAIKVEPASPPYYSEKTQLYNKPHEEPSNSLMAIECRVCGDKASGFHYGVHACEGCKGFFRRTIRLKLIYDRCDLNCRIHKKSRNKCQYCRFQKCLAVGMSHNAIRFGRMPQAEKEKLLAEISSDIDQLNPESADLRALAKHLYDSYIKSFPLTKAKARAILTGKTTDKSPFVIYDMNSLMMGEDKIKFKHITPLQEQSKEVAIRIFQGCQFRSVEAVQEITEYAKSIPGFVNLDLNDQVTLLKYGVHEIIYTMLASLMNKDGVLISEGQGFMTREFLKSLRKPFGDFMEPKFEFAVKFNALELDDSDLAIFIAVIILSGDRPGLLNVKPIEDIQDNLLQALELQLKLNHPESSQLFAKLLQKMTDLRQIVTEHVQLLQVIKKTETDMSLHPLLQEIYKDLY
Sequence of Peroxisome proliferator-activated receptor gamma/Nuclear receptor coactivator 3 (Q9Y6Q9 whole entry, further chain): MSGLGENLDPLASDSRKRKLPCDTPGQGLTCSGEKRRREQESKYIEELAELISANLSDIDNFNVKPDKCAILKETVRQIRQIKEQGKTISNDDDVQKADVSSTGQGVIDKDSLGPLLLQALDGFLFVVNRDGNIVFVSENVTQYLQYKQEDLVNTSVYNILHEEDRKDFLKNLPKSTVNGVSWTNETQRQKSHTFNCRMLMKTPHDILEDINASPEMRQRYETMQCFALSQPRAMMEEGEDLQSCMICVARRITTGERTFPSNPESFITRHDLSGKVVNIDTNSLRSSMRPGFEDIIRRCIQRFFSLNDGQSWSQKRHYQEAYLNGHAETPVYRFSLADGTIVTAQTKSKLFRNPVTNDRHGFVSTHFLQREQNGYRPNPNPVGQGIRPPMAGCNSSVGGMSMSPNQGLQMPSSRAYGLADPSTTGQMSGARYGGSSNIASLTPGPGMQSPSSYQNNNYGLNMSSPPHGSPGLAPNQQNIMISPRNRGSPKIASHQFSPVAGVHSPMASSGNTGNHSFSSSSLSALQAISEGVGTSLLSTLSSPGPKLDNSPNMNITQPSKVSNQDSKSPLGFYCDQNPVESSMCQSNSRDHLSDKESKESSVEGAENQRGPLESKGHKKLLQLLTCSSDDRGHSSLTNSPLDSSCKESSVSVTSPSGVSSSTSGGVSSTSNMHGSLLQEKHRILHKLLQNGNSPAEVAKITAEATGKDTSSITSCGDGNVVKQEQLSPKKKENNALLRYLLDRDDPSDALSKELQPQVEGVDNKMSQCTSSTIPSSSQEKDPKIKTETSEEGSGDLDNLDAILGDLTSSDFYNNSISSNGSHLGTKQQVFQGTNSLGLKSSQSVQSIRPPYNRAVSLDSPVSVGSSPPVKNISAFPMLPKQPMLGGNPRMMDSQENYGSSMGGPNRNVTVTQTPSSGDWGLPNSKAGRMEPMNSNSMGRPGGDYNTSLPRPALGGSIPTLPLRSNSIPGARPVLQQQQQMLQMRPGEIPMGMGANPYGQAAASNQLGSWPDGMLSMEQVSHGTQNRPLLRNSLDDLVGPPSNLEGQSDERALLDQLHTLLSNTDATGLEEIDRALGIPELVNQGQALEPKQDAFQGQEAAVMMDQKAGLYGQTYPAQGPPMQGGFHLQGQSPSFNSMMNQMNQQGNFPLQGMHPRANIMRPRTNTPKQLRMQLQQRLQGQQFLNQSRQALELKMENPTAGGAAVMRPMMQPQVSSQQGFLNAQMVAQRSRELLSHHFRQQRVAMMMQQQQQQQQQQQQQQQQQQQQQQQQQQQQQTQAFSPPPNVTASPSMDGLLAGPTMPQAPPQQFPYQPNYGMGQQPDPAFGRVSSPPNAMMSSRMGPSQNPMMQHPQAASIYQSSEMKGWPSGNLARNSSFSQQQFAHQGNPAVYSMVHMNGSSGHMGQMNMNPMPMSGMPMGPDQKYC

[4] = molecular target: Peroxisome proliferator-activated receptor gamma/Nuclear receptor coactivator 1 (Homo sapiens, UniProt P37231); test: as §1, with “1 (SRC-1)” for “3 (SRC-3)”, “assays (depositor defined):AID1300, AID1808, AID504735, AID631]” for “assays: 1301 (Confirmation screen.), 1048 (Primary screen.)]”; type: protein assay
Sequence of Peroxisome proliferator-activated receptor gamma/Nuclear receptor coactivator 1 (P37231 whole entry): as the sequence (P37231 whole entry) above
Sequence of Peroxisome proliferator-activated receptor gamma/Nuclear receptor coactivator 1 (Q15788 whole entry, further chain): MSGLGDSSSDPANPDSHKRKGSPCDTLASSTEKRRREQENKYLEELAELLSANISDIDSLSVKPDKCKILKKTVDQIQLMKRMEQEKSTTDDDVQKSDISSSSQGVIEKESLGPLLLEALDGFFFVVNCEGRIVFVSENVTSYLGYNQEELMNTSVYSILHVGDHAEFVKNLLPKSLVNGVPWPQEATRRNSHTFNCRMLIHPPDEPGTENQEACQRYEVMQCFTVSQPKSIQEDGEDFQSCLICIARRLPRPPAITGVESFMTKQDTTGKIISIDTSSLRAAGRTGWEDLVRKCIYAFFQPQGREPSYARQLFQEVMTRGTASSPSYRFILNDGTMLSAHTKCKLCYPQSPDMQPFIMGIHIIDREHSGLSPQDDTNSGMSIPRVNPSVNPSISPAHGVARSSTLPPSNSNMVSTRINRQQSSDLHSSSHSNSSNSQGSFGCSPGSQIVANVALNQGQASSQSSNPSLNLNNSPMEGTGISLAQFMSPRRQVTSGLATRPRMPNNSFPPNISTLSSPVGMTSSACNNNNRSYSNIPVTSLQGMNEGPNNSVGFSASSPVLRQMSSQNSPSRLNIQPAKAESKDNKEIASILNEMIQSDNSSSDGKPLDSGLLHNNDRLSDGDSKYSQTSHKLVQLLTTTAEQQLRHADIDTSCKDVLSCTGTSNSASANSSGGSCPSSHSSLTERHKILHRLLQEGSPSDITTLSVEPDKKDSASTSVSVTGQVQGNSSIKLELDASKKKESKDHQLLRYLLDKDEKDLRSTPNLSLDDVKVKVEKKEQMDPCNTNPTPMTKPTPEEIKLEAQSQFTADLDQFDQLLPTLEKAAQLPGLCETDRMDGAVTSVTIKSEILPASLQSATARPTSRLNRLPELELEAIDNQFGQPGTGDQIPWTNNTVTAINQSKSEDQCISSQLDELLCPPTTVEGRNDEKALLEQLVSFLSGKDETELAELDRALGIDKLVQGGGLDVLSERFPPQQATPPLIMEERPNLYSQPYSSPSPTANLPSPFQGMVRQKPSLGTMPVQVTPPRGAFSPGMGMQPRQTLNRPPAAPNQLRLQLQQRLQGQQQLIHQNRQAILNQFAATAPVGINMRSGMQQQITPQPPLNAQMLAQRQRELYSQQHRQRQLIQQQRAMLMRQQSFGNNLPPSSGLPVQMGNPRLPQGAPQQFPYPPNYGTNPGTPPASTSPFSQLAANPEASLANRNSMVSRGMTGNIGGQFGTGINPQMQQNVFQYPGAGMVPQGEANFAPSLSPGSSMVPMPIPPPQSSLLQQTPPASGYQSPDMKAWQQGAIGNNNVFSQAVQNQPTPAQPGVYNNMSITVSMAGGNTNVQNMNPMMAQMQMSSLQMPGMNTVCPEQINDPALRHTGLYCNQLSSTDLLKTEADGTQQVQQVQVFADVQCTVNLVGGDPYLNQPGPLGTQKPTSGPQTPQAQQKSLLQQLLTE

Trypsin = Trypsin (Sus scrofa, UniProt P00761); test: porcine trypsin inhibitors, dose response, selectivity assay for Rce1 protease inhibitor project, biochemical, quenched peptide fluorescence, cherry-pick (AID 488789)
Sequence of Trypsin (P00761 whole entry): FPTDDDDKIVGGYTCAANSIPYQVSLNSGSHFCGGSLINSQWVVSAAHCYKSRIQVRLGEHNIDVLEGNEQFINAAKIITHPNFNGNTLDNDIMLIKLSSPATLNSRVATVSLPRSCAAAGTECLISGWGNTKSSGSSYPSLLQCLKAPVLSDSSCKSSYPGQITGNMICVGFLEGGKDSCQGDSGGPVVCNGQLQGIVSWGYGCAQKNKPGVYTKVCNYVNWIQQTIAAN

[5] = molecular target: Peroxisome proliferator-activated receptor gamma/Nuclear receptor coactivator 2 (Homo sapiens, UniProt P37231); test: TR-FRET dose response biochemical High Throughput Screening assay for agonists of the steroid receptor coactivator 2 (SRC-2) recruitment by the peroxisome proliferator-activated receptor gamma (PPAR gamma): non-selective agonists. [Related pubchem assays: 1297, 1032 ]; type: functional
Large T antigen = Large T antigen (Simian virus 40, UniProt P03070); type: functional, Betapolyomavirus macacae;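 further: Confirmatory-stage PubChem screen for compounds that inhibit SV40 T antigen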
Hexokinase HKDC1 = molecular target: T3, Hexokinase HKDC1 (Homo sapiens, UniProt Q2TB90); test: HKDC1 hexokinase inhibitors, dose response, biochemical, W721R variant (AID 504729); type: functional
T3 sequence (Q2TB90 whole entry): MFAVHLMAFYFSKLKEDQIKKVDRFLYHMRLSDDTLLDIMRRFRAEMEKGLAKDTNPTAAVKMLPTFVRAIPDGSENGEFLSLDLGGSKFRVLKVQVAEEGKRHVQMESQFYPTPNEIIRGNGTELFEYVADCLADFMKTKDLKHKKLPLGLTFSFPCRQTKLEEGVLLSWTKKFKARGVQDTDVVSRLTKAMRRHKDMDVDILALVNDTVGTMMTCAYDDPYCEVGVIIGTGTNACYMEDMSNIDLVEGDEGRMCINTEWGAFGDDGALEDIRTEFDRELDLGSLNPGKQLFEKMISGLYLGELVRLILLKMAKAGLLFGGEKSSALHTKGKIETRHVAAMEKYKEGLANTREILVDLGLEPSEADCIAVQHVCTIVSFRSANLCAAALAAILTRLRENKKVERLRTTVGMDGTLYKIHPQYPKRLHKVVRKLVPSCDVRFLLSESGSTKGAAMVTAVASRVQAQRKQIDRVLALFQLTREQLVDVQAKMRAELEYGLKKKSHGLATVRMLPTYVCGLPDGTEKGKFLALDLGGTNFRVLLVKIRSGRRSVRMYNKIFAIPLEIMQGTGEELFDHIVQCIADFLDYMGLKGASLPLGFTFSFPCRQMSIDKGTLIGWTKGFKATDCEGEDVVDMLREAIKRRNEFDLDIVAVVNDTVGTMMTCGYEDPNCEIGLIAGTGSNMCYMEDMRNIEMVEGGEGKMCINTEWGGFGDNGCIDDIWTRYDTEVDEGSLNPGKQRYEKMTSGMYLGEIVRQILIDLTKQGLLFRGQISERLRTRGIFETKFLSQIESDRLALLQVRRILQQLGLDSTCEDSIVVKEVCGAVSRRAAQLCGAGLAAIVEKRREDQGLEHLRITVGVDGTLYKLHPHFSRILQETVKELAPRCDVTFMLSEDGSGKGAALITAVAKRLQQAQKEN

[6] = molecular target: Eukaryotic translation initiation factor 4H (Homo sapiens, UniProt Q15056); test: human eIF4H binding inhibitors, primary screen, translation initiation inhibitor project, biochemical, uHTS, fluorescence polarization (AID 2012)
[7] = molecular target: Polyadenylate-binding protein 1 (Homo sapiens, UniProt P11940); test: PABP poly(A) RNA binding inhibitors, primary screen, biochemical, fluorescence polarization, uHTS (AID 2014)
[8] = molecular target: T2, DNA dC->dU-editing enzyme APOBEC-3G; type: functional
[9] = molecular target: DNA dC->dU-editing enzyme APOBEC-3A (Homo sapiens, UniProt P31941); test: Dose Response confirmation of small molecule APOBEC3A DNA Deaminase Inhibitors via a fluorescence-based single-stranded DNA deaminase assay. [Related pubchem assays (depositor defined):AID493011, AID493024]; type: functional
Sequence of DNA dC->dU-editing enzyme APOBEC-3A (P31941 whole entry): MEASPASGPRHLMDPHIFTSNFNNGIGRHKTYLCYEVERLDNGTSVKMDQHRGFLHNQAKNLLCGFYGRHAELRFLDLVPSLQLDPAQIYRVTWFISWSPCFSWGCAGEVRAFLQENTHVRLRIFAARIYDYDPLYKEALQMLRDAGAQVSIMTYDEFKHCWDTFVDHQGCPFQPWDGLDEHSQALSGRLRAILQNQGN

[10] = cytotoxicity in HEK-293T cells, dose response, cytotoxicity control for BCR NF-kB inhibitor project, luminescence, B-cell screen hits (AID 489021); type: functional, cell-based;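 further: HEK-293T cells carrying an NF-kB luciferase reporter; cells exposed to compound for about 14 hours before viability readout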

CN(CC(=O)Nc1ccc(OC(F)F)cc1)S(=O)(=O)/C=C/c1ccccc1
IC50 [1]: > 66.6 µM (inactive)
IC50 (Beta-galactosidase): > 66.6 µM (inactive)

CCOC(=O)c1sc(NC(=O)C(C)C)c(C#N)c1C
IC50 [2]: 39.3 µM (active)

S=c1[nH]nc(-c2ccccc2)o1
EC50 [3]: > 79.4 µM (not active)
EC50 [4]: 16.2 µM (inactive)
AC50 (Trypsin): 13.3 µM (active)
EC50 [5]: 8.1 µM (active)

CC[C@H](C)/C=C(C)/C=C/C1=CC2=C(Cl)C(=O)[C@@](C)(OC(C)=O)C(=O)C2=CO1
IC50 (Large T antigen): 30.4 µM (active)
IC50 (Hexokinase HKDC1): 16.8 µM (active)

C[n+]1ccc(-c2ccncc2)cc1
IC50 [6]: 82.2 µM (active)
IC50 [7]: 7.33 µM (active)
IC50 [8]: 2.53 µM (active)
IC50 [9]: 2.02 µM (active)

COc1ccc(C(=O)Nc2ccc(OC)c([N+](=O)[O-])c2)cc1Br
IC50 [10]: > 80 µM (inactive)
